Patent US20200318165A1, “Rapid Identification of Microorganisms” (Board of Regents of the Nevada System of Higher Education, …, priority 2015, published 2020)

Columns and labels:
B. subtilis = assay: Cellular uptake monitored by Transmission Electron Microscopy; type: cell-based; settings: 5 μg/mL, 30 min, FIG. 3B
Protocol: (§1) TEM was used to examine whether the retention of C60-pyrrolidine tris acid was localized within the cytosol. Microorganisms were incubated with C60-pyrrolidine tris acid (5 μg/mL) for 30 min. Cells were pelleted by centrifugation at 5,000 rcf (5 min) and washed 5 times with DI H2O. Microorganisms were fixed in 2.5% glutaraldehyde/PBS solution for 30 min. The cells were then pelleted by centrifugation at 5,000 rcf for 5 min. The cell pellet was placed in fresh 2.5% glutaraldehyde/PBS solution at 4° C. overnight. Next, cell pellets were dehydrated by a series of acetone treatments (30% for 15 min, 50% for 15 min, 70% for 15 min, 90% for 15 min and a final treatment at 100% for 30 min, and repeated 3 times), embedded in resin (2:1 mix of propylene oxide:resin for 1 hour, 1:1 mix of propylene oxide:resin for 1 hour, 1:2 mix of propylene oxide: resin for 1 hour, 100% resin overnight, and change to fresh resin 1 h), incubated for 24 h at 37° C., sectioned (60 nm in thickness), and imaged using a Tecnai 12 TEM.
(§2) To test the hypothesis that functionalized C60-pyrrolidine tris acid internalizes within the cell, microorganisms were imaged with TEM. Both E. coli and B. subtilis were incubated with C60-pyrrolidine tris acid, washed to remove excess compound, sectioned into slices of 60 nm thickness, and then imaged by TEM. […]

E. coli = assay: as above; type: cell-based; settings: 5 μg/mL, 30 min, FIG. 3A
Protocol: as §1, §2

[1] = Fluorescence of the probe itself without bacteria; type: physicochemical; settings: excitation of 568 nm laser
Excerpt: Methods were developed to distinguish different species of live bacteria by functionalization of C60 with RNA oligonucleotides hybridized with reporter compounds. The signature RNA oligonucleotides are designed in accordance with the signature information on 16s ribosome RNA, which is unique to each species (Reischl et al., Clin Chem 52, 1985-1987 (2006) and Dresios et al., Journal of molecular biology 345, 681-693 (2005), each of which is hereby incorporated by reference in its entirety). The strategy to recognize a certain bacteria is shown in FIGS. 20A-20C and operates as follows: • (1) C60 molecules were functionalized with signature RNA oligonucleotides containing signature information (e.g., calling card) of a certain species. The Signature RNA oligonucleotides were typically screened through bioinformatics analysis. • (2) A reporter sequence, which is conjugated to a fluorophore, was hybridized with the signature sequence. The fluorophore was silent while hybridized but fluoresced once released. • (3) The C60 complex penetrated the bacteria and released the reporter if the bacteria contained ribosomal signature information that matches the signature RNA oligonucleotide on the C60 complex. The released reporter sequence emitted a fluorescent signal and was detected while free in the cytoplasm. […]

## C60-pyrrolidine tris acid
B. subtilis
  Localization in sectioned cells (TEM): localizes within the cell
E. coli
  Localization in sectioned cells (TEM): localizes within the cell
[1]
  Autofluorescence: no autofluorescence
